Reference: ChEMBL document CHEMBL1201862, “PubChem BioAssay data set” (2004)
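Briefly, cells in 96-well plates were exposed to five compound concentrations for 48 h, and endpoints were estimated by linear interpolation. Here, GI50 denotes the concentration required for 50% inhibition of growth.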 Active and inactive are the calls of the source. No stated cut-off is given here; in the data, active = GI50 up to about 1.1 µM and inactive = higher.

Experiments:
Assay in all cases: DTP human tumour cell line panel, 48 h
Hs-578T = test system: Hs-578T
T47D = test system: T47D
SN12C = test system: SN12C
SW-620 = test system: SW-620
OVCAR-4 = test system: OVCAR-4
M14 = test system: M14
ACHN = test system: ACHN
CCRF-CEM = test system: CCRF-CEM
MDA-MB-435 = test system: MDA-MB-435
DU-145 = test system: DU-145
IGROV-1 = test system: IGROV-1
SF-539 = test system: SF-539
UACC-257 = test system: UACC-257
786-0 = test system: 786-0
NCI-H226 = test system: NCI-H226
PC-3 = test system: PC-3
TK-10 = test system: TK-10
SK-OV-3 = test system: SK-OV-3
MOLT-4 = test system: MOLT-4
MCF7 = test system: MCF7
SF-268 = test system: SF-268
HOP-92 = test system: HOP-92
A498 = test system: A498
A549 = test system: A549
SK-MEL-28 = test system: SK-MEL-28
U-251 = test system: U-251
OVCAR-8 = test system: OVCAR-8
OVCAR-5 = test system: OVCAR-5
NCI-H460 = test system: NCI-H460
MDA-MB-231 = test system: MDA-MB-231
LOX IMVI = test system: LOX IMVI
SK-MEL-5 = test system: SK-MEL-5
EKVX = test system: EKVX
NCI-H522 = test system: NCI-H522
CAKI-1 = test system: CAKI-1
RPMI-8226 = test system: RPMI-8226
SK-MEL-2 = test system: SK-MEL-2
BT-549 = test system: BT-549
COLO 205 = test system: COLO 205
NCI-H23 = test system: NCI-H23
Malme-3M = test system: Malme-3M
SR = test system: SR
MDA-N = test system: MDA-N
NCI/ADR-RES = test system: NCI/ADR-RES
RXF 393 = test system: RXF 393
HOP-62 = test system: HOP-62
K562 = test system: K562
HCT-116 = test system: HCT-116
SNB-75 = test system: SNB-75
SNB-19 = test system: SNB-19
KM12 = test system: KM12
OVCAR-3 = test system: OVCAR-3
HT-29 = test system: HT-29
HCT-15 = test system: HCT-15
UACC-62 = test system: UACC-62
SF-295 = test system: SF-295
UO-31 = test system: UO-31
HL-60 = test system: HL-60
HCC 2998 = test system: HCC 2998

Compound: NC(Cc1nnn[nH]1)C(=O)O (stereo not drawn)
- GI50 (Hs-578T): > 100 µM (inactive)
- GI50 (T47D): > 100 µM (inactive)
- GI50 (SN12C): > 100 µM (inactive)
- GI50 (SW-620): > 100 µM (inactive)
- GI50 (OVCAR-4): > 100 µM (inactive)
- GI50 (M14): > 100 µM (inactive)
- GI50 (ACHN): > 100 µM (inactive)
- GI50 (CCRF-CEM): > 100 µM (inactive)
- GI50 (MDA-MB-435): > 100 µM (inactive)
- GI50 (DU-145): > 100 µM (inactive)
- GI50 (IGROV-1): > 100 µM (inactive)
- GI50 (SF-539): > 100 µM (inactive)
- GI50 (UACC-257): > 100 µM (inactive)
- GI50 (786-0): > 100 µM (inactive)
- GI50 (NCI-H226): > 100 µM (inactive)
- GI50 (PC-3): > 100 µM (inactive)
- GI50 (TK-10): > 100 µM (inactive)
- GI50 (SK-OV-3): > 100 µM (inactive)
- GI50 (MOLT-4): > 100 µM (inactive)
- GI50 (MCF7): > 100 µM (inactive)
- GI50 (SF-268): > 100 µM (inactive)
- GI50 (HOP-92): > 100 µM (inactive)
- GI50 (A498): > 100 µM (inactive)
- GI50 (A549): > 100 µM (inactive)
- GI50 (SK-MEL-28): > 100 µM (inactive)
- GI50 (U-251): > 100 µM (inactive)
- GI50 (OVCAR-8): > 100 µM (inactive)
- GI50 (OVCAR-5): > 100 µM (inactive)
- GI50 (NCI-H460): > 100 µM (inactive)
- GI50 (MDA-MB-231): > 100 µM (inactive)
- GI50 (LOX IMVI): > 100 µM (inactive)
- GI50 (SK-MEL-5): > 100 µM (inactive)
- GI50 (EKVX): > 100 µM (inactive)
- GI50 (NCI-H522): > 100 µM (inactive)
- GI50 (CAKI-1): > 100 µM (inactive)
- GI50 (RPMI-8226): > 100 µM (inactive)
- GI50 (SK-MEL-2): > 100 µM (inactive)
- GI50 (BT-549): > 100 µM (inactive)
- GI50 (COLO 205): > 100 µM (inactive)
- GI50 (NCI-H23): > 100 µM (inactive)
- GI50 (Malme-3M): > 100 µM (inactive)
- GI50 (SR): > 100 µM (inactive)
- GI50 (MDA-N): > 100 µM (inactive)
- GI50 (NCI/ADR-RES): > 100 µM (inactive)
- GI50 (RXF 393): > 100 µM (inactive)
- GI50 (HOP-62): > 100 µM (inactive)
- GI50 (K562): > 100 µM (inactive)
- GI50 (HCT-116): > 100 µM (inactive)
- GI50 (SNB-75): > 100 µM (inactive)
- GI50 (SNB-19): > 100 µM (inactive)
- GI50 (KM12): > 100 µM (inactive)
- GI50 (OVCAR-3): > 100 µM (inactive)
- GI50 (HT-29): > 100 µM (inactive)
- GI50 (HCT-15): > 100 µM
- GI50 (UACC-62): > 100 µM (inactive)
- GI50 (SF-295): > 100 µM (inactive)

Compound: CCOC(=O)c1cc(C2=C(S)N(CC(C)CC)CC2)c(C(=O)CC)[nH]1 (stereo not drawn)
- GI50 (Hs-578T): 26.9 µM (inactive)
- GI50 (T47D): 7.53 µM (inactive)
- GI50 (SN12C): 18.7 µM (inactive)
- GI50 (SW-620): 6.01 µM (inactive)
- GI50 (OVCAR-4): 14.5 µM (inactive)
- GI50 (ACHN): 15.3 µM (inactive)
- GI50 (CCRF-CEM): 4.28 µM (inactive)
- GI50 (MDA-MB-435): 15.5 µM (inactive)
- GI50 (DU-145): 16.6 µM (inactive)
- GI50 (IGROV-1): 20.3 µM (inactive)
- GI50 (SF-539): 12 µM (inactive)
- GI50 (UACC-257): 17.4 µM (inactive)
- GI50 (786-0): 16.9 µM (inactive)
- GI50 (NCI-H226): 23.5 µM (inactive)
- GI50 (PC-3): 19.7 µM (inactive)
- GI50 (TK-10): 15.3 µM (inactive)
- GI50 (SK-OV-3): 23.5 µM (inactive)
- GI50 (UO-31): 16.8 µM (inactive)
- GI50 (MOLT-4): 4.56 µM (inactive)
- GI50 (MCF7): 21.3 µM (inactive)
- GI50 (SF-268): 21.9 µM (inactive)
- GI50 (HOP-92): 19.7 µM (inactive)
- GI50 (A498): 15.6 µM (inactive)
- GI50 (A549): 25.1 µM (inactive)
- GI50 (SK-MEL-28): 19.5 µM (inactive)
- GI50 (U-251): 13.1 µM (inactive)
- GI50 (OVCAR-8): 21.5 µM (inactive)
- GI50 (NCI-H460): 20.6 µM (inactive)
- GI50 (MDA-MB-231): 15.6 µM (inactive)
- GI50 (LOX IMVI): 17.4 µM (inactive)
- GI50 (HL-60): 5.36 µM (inactive)
- GI50 (EKVX): 17.5 µM (inactive)
- GI50 (NCI-H522): 14.9 µM (inactive)
- GI50 (CAKI-1): 12.9 µM (inactive)
- GI50 (RPMI-8226): 5.36 µM (inactive)
- GI50 (SK-MEL-2): 22.1 µM (inactive)
- GI50 (BT-549): 19.3 µM (inactive)
- GI50 (COLO 205): 11 µM (inactive)
- GI50 (NCI-H23): 19.5 µM (inactive)
- GI50 (Malme-3M): 11.1 µM (inactive)
- GI50 (SR): 5.96 µM (inactive)
- GI50 (MDA-N): 14.3 µM (inactive)
- GI50 (NCI/ADR-RES): 29.5 µM (inactive)
- GI50 (RXF 393): 20.7 µM (inactive)
- GI50 (K562): 10 µM (inactive)
- GI50 (HCT-116): 15.3 µM (inactive)
- GI50 (SNB-75): 19.7 µM (inactive)
- GI50 (SNB-19): 19.1 µM (inactive)
- GI50 (KM12): 16.9 µM (inactive)
- GI50 (HT-29): 22.4 µM (inactive)
- GI50 (HCT-15): 10.2 µM
- GI50 (UACC-62): 16.6 µM (inactive)
- GI50 (SF-295): 18.2 µM (inactive)

Compound: CCNC1=C(NC(=O)c2ccc(OC)cc2)C(=O)c2ccccc2C1=O
- GI50 (Hs-578T): > 100 µM (inactive)
- GI50 (T47D): 66.1 µM (inactive)
- GI50 (SN12C): 43.6 µM (inactive)
- GI50 (HCC 2998): 37.5 µM (inactive)
- GI50 (SW-620): 44 µM (inactive)
- GI50 (OVCAR-4): 34.7 µM (inactive)
- GI50 (M14): 21.6 µM (inactive)
- GI50 (ACHN): 88.3 µM (inactive)
- GI50 (CCRF-CEM): 48.3 µM (inactive)
- GI50 (MDA-MB-435): 16.8 µM (inactive)
- GI50 (DU-145): > 100 µM (inactive)
- GI50 (IGROV-1): 72.1 µM (inactive)
- GI50 (SF-539): 56.8 µM (inactive)
- GI50 (UACC-257): 19.4 µM (inactive)
- GI50 (786-0): > 100 µM (inactive)
- GI50 (NCI-H226): > 100 µM (inactive)
- GI50 (PC-3): 32.8 µM (inactive)
- GI50 (TK-10): > 100 µM (inactive)
- GI50 (SK-OV-3): > 100 µM (inactive)
- GI50 (MOLT-4): 36.1 µM (inactive)
- GI50 (MCF7): 51.8 µM (inactive)
- GI50 (SF-268): > 100 µM (inactive)
- GI50 (HOP-92): > 100 µM (inactive)
- GI50 (A549): 70.3 µM (inactive)
- GI50 (SK-MEL-28): > 100 µM (inactive)
- GI50 (U-251): > 100 µM (inactive)
- GI50 (OVCAR-8): 24.6 µM (inactive)
- GI50 (OVCAR-5): > 100 µM (inactive)
- GI50 (NCI-H460): 56.5 µM (inactive)
- GI50 (MDA-MB-231): 92.9 µM (inactive)
- GI50 (HL-60): 51.6 µM (inactive)
- GI50 (SK-MEL-5): 34.7 µM (inactive)
- GI50 (EKVX): > 100 µM (inactive)
- GI50 (NCI-H522): 30.7 µM (inactive)
- GI50 (RPMI-8226): > 100 µM (inactive)
- GI50 (BT-549): 63.1 µM (inactive)
- GI50 (COLO 205): 37 µM (inactive)
- GI50 (NCI-H23): 43.6 µM (inactive)
- GI50 (Malme-3M): 21.3 µM (inactive)
- GI50 (SR): 56.5 µM (inactive)
- GI50 (MDA-N): 37.2 µM (inactive)
- GI50 (NCI/ADR-RES): 29 µM (inactive)
- GI50 (RXF 393): 28.5 µM (inactive)
- GI50 (HOP-62): > 100 µM (inactive)
- GI50 (K562): > 100 µM (inactive)
- GI50 (HCT-116): 36.3 µM (inactive)
- GI50 (SNB-75): > 100 µM (inactive)
- GI50 (SNB-19): > 100 µM (inactive)
- GI50 (KM12): 49.9 µM (inactive)
- GI50 (OVCAR-3): 24 µM (inactive)
- GI50 (HT-29): 23.4 µM (inactive)
- GI50 (HCT-15): 48.4 µM
- GI50 (UACC-62): 39.4 µM (inactive)
- GI50 (SF-295): > 100 µM (inactive)
